Laboratory results published in the supplement of paper PMC10307832.

What was measured:
Test in all cases: relative viability (nuclei count vs DMSO), 5 days (fraction); higher = more cells survive
Obatoclax + Palbociclib = compound: COC1=CC(c2cc3ccccc3[nH]2)=N/C1=C\c1[nH]c(C)cc1C [Obatoclax] + CC(=O)c1c(C)c2cnc(Nc3ccc(N4CCNCC4)cn3)nc2n(C2CCCC2)c1=O [Palbociclib] (partner 0.5 µM)
Method in brief: (§1)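 Lung cancer cell lines were seeded in 1536-well plates and dosed by pin tool the next day, with either a single drug or a fixed anchor-drug dose combined with five library-drug doses (not always all listed) spaced in √10 steps. Five days later, one step fixed the cells and stained their nuclei (final 0.05% Triton X-100, 1% formaldehyde, 1 ug/ml Hoechst), and nuclei were counted on 4× images. Relative viability is the nuclei count in treated wells divided by the count in vehicle wells, and each value is the median of duplicate plates.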

Obatoclax + Olaparib = compound: COC1=CC(c2cc3ccccc3[nH]2)=N/C1=C\c1[nH]c(C)cc1C [Obatoclax] + O=C(c1cc(Cc2n[nH]c(=O)c3ccccc23)ccc1F)N1CCN(C(=O)C2CC2)CC1 [Olaparib] (partner 8 µM)
Method in brief: as §1

Obatoclax + Crizotinib = compound: COC1=CC(c2cc3ccccc3[nH]2)=N/C1=C\c1[nH]c(C)cc1C [Obatoclax] + C[C@@H](Oc1cc(-c2cnn(C3CCNCC3)c2)cnc1N)c1c(Cl)ccc(F)c1Cl [Crizotinib] (partner 1 µM)
Method in brief: as §1

[1] = compound: CC1=CC(=NN1)NC2=CC(=NC(=N2)/C=C/C3=CC=CC=C3)N4CCN(CC4)C + COc1cccc2cc(-c3nc([C@H]4CC[C@H](C(=O)O)CC4)n4ncnc(N)c34)[nH]c12 [OSI-027] (partner 0.5 µM)
Method in brief: as §1

Row | Cell Line | relative viability (Obatoclax + Palbociclib; first compound 0.01 µM) | relative viability (Obatoclax + Palbociclib; first compound 0.03162 µM) | relative viability (Obatoclax + Palbociclib; first compound 0.1 µM) | relative viability (Obatoclax + Palbociclib; first compound 0.3162 µM) | relative viability (Obatoclax + Palbociclib; first compound 1 µM) | relative viability (Obatoclax + Olaparib; first compound 0.01 µM) | relative viability (Obatoclax + Olaparib; first compound 0.03162 µM) | relative viability (Obatoclax + Olaparib; first compound 0.1 µM) | relative viability (Obatoclax + Olaparib; first compound 0.3162 µM) | relative viability (Obatoclax + Olaparib; first compound 1 µM) | relative viability (Obatoclax + Crizotinib; first compound 0.01 µM) | relative viability (Obatoclax + Crizotinib; first compound 0.03162 µM) | relative viability (Obatoclax + Crizotinib; first compound 0.1 µM) | relative viability (Obatoclax + Crizotinib; first compound 0.3162 µM) | relative viability (Obatoclax + Crizotinib; first compound 1 µM) | relative viability ([1]; first compound 0.08 µM) | relative viability ([1]; first compound 0.253 µM) | relative viability ([1]; first compound 0.8 µM) | relative viability ([1]; first compound 2.53 µM) | relative viability ([1]; first compound 8 µM)
1 | NCI-H727 | 0.608 | 0.618 | 0.779 | 0.62 | 0.646 | 0.815 | 0.883 | 0.708 | 0.637 | 0.697 | 0.828 | 0.792 | 0.832 | 0.87 | 0.605 | 0.608 | 0.485 | 0.678 | 0.398 | 0.278
2 | NCI-H1944 | 0.344 | 0.313 | 0.34 | 0.318 | 0.319 | 0.412 | 0.427 | 0.443 | 0.418 | 0.392 | 0.975 | 1.05 | 1.05 | 1.06 | 1.02 | 0.437 | 0.4 | 0.394 | 0.272 | 0.145
3 | NCI-H1437 | 0.306 | 0.311 | 0.324 | 0.31 | 0.237 | 0.634 | 0.623 | 0.626 | 0.623 | 0.533 | 0.804 | 0.857 | 0.861 | 0.896 | 1.03 | 0.84 | 0.89 | 0.947 | 0.737 | 0.164
4 | NCI-H441 | 0.231 | 0.214 | 0.261 | 0.167 | 0.155 | 0.63 | 0.6 | 0.527 | 0.359 | 0.288 | 0.676 | 0.742 | 0.724 | 0.604 | 0.549 | 0.607 | 0.501 | 0.589 | 0.226 | 0.179
5 | EMC-BAC-2 | 0.502 | 0.494 | 0.474 | 0.556 | 0.432 | 0.491 | 0.514 | 0.418 | 0.478 | 0.43 | 0.777 | 0.725 | 0.738 | 0.745 | 0.634 | 0.364 | 0.426 | 0.32 | 0.226 | 0.097
6 | NCI-H647 | 0.458 | 0.321 | 0.398 | 0.151 | 0.0783 | 0.633 | 0.539 | 0.547 | 0.174 | 0.067 | 0.997 | 1.13 | 0.762 | 0.286 | 0.133 | 0.706 | 0.628 | 0.668 | 0.13 | 0.0671
7 | CAL-12T | 0.445 | 0.495 | 0.426 | 0.176 | 0.0895 | 0.759 | 0.764 | 0.724 | 0.679 | 0.232 | 0.511 | 0.797 | 0.492 | 0.382 | 0.105 | 0.666 | 0.651 | 0.447 | 0.14 | 0.12
8 | NCI-H1792 | 0.626 | 0.609 |  | 0.625 | 0.705 | 0.423 | 0.334 | 0.299 | 0.369 | 0.405 | 0.999 | 0.948 |  | 0.999 | 0.99 | 0.678 | 0.777 | 0.673 | 0.519 | 0.206
9 | H3255 | 0.308 | 0.299 | 0.278 | 0.327 | 0.324 | 0.537 | 0.608 | 0.541 | 0.557 | 0.546 | 0.773 | 0.87 | 0.828 | 0.624 | 0.697 | 0.582 | 0.541 | 0.579 | 0.589 | 0.382
10 | HCC-78 | 0.438 | 0.45 | 0.506 | 0.479 | 0.457 | 0.836 | 0.952 | 1.26 | 0.668 | 0.855 | 0.326 | 0.34 |  | 0.317 | 0.314 | 0.325 | 0.357 | 0.387 | 0.343 | 0.198
11 | EBC-1 |  |  |  |  |  | 0.632 | 0.765 | 0.642 | 0.583 | 0.269 | 0.176 | 0.198 | 0.197 | 0.19 | 0.168 |  |  |  |  | 
12 | NCI-H2405 | 0.578 | 0.545 |  | 0.541 | 0.434 | 0.911 | 0.981 |  | 0.935 | 0.734 | 0.821 | 0.832 |  | 0.826 | 0.867 | 0.619 | 0.571 | 0.651 | 0.373 | 0.209
13 | A549 |  |  |  |  |  | 0.326 | 0.367 | 0.0867 | 0.361 | 0.342 | 0.75 | 0.799 | 0.752 | 0.664 | 0.0778 |  |  |  |  | 
14 | NCI-H3122 | 0.185 | 0.185 | 0.277 | 0.224 | 0.179 | 0.655 | 0.517 | 0.642 | 0.613 | 0.678 | 0.274 | 0.28 | 0.288 | 0.272 | 0.274 | 0.901 | 0.763 | 0.975 | 0.675 | 0.186
15 | NCI-H1563 |  |  |  |  |  |  |  |  |  |  | 0.786 | 0.864 | 0.881 | 0.906 | 0.653 | 0.776 | 0.813 | 0.722 | 0.65 | 0.431
16 | HCC-44 | 0.922 | 0.916 | 0.967 | 0.993 | 0.94 | 0.965 | 0.988 | 0.966 | 0.969 | 0.94 | 0.786 | 0.684 | 0.8 | 0.721 | 0.228 | 0.615 | 0.49 | 0.633 | 0.292 | 0.144
17 | PC-3 [JPC-3] | 0.497 | 0.515 | 0.503 | 0.406 | 0.33 | 1.09 | 1.25 | 1.02 | 1 | 0.514 | 0.942 | 0.892 | 0.949 | 0.984 | 0.917 | 0.766 | 0.683 | 0.83 | 0.67 | 0.59
18 | NCI-H1993 | 0.703 | 0.611 | 0.692 | 0.693 | 0.686 | 0.95 | 1.15 | 0.984 | 1.01 | 1.11 | 0.922 | 0.916 | 1.02 | 0.932 | 0.986 | 0.514 | 0.484 | 0.478 | 0.457 | 0.414
